Measurements as given in ChEMBL document CHEMBL1155328, “A conformational constraint improves a beta-secretase inhibitor but for an unexpected reason” (Bioorg Med Chem Lett, 2009).

Assays:
P-gp = experiment: (§1) Apparent permeability in human Caco-2 cells assessed as Pgp efflux ratio from basolateral to apical side to apical to basolateral side; type: ADME, cell-based
Beta-secretase 1 = Beta-secretase 1 (Homo sapiens, UniProt P56817); experiment: Inhibition of BACE-1
Caco-2 = experiment: as §1; type: ADME, cell-based

Beta-secretase 1, sequence (P56817 whole entry): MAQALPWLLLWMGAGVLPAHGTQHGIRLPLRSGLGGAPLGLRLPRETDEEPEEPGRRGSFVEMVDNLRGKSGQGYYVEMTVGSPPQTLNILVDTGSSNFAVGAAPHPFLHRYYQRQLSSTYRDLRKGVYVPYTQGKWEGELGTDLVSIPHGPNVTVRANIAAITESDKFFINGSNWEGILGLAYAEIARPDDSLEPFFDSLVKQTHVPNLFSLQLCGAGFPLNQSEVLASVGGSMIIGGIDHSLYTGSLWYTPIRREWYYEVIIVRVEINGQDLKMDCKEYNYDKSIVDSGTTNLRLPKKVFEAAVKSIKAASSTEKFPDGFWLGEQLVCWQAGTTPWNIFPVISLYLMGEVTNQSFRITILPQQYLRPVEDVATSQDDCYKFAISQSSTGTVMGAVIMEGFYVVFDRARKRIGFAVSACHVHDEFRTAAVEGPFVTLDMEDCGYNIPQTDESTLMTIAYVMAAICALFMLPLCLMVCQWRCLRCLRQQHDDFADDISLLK

Structure (SMILES) | efflux ratio (P-gp) | IC50 (Beta-secretase 1) [nM] | Ratio (Caco-2)
COc1ccc2c(c1F)CCC2(Cc1ccc(C(F)(F)F)cc1)c1cn(C)c(N)n1 (stereo not given) | 3.6 | 63 | 
COc1ccc2c(c1)CCC2(Cc1ccc(C(F)(F)F)cc1)c1cn(C)c(N)n1 (stereo not given) |  | 350 | 
COc1ccc(C(Cc2ccc(C(F)(F)F)cc2)c2cn(C)c(N)n2)cc1 (stereo not given) |  | 1800 | 4
